Like-named read-outs stand apart in the source and are kept apart here. Bridge positions count the residues as written; N and C are the ends. Square brackets hold non-standard residues; d marks the D form. Peptide text beside a SMILES is read from it. * marks the point of attachment. Ileψ(thiazoline)Cys = CC[C@H](C)[C@H](N)C1=N[C@H](C(=O)*)CS1; dOrn = NCCC[C@@H](N)C(=O)O
How the values were obtained:
[1] = tested on: B. atropheus spores, Pseudomonas aeruginosa, and Staphylococcus aureus; assay: Bacterial suspension assay, test organisms not told apart; format: cell-based; conditions: Bacitracin 33 Units/ml; over the time periods tested
Experimental: Dermacyn is a ready to use product, therefore performing dilutions during testing was not required.
A purchased spore suspension of B. atropheus at 2.5×10^7/ml was used for testing. In addition fresh suspensions of Pseudomonas aeruginosa, and Staphylococcus aureus were prepared and measured using a spectrophotometer to ensure the titer was acceptable
Nine microliters of test substance was added to 100 ul of microbe suspension. The test mixture was held at 20° C. for the contact times of 20 seconds, 5 minutes, and 20 minutes. […] (entire mixture) was added to 9.0 ml of neutralizer for 20 minutes (this is the original neutralization tube or ONT) 1.0 ml of the neutralized test mixture was plated on Tryptic Soy Agar in duplicate for the 5 minute and 20 minute contact times. Additional dilutions and spread plates were used for the 20 second time point, to achieve countable plates.
All plates were incubated at 30° C.-35° C. for a total of 3 days and were evaluated after each day of incubation.

primary HDF cultures = conditions: human, 1 month, 5 µM
[2] = tested on: human diploid fibroblasts (HDFs); assay: Cell viability, apoptosis and necrosis by flow cytometry; format: cell-based; conditions: 880 mM
Experimental: HP is known to be toxic to eukaryotic cells, increasing apoptosis and necrosis and reducing cellular viability. […] HDF cultures were obtained from three different foreskins, which were pooled and cryopreserved together for the purpose of this study. Only diploid cells were used for all experiments. […] Simultaneous analyses of these parameters were performed in the same cell populations by flow cytometry using: […] B) Annexin V-FITC; and C) Propidium iodide. FIG. 4A-4C disclose percentage values expressed as mean±SD (n=3).

[3] = tested on: murine polychromatic erythrocytes
Experimental: The mammalian in vivo micronucleus test is used for the identification of substances which cause damage to chromosomes or the mitotic apparatus of murine polychromatic erythrocytes. This damage results in the formation of “micronuclei,” intracellular structures containing lagging chromosome fragments or isolated whole chromosomes. […] The positive control mice received a single intraperitoneal injection of cyclophosphamide (8 mg/mL, 12.5 ml/kg) on day 2. All mice were observed immediately after injection for any adverse reactions. […] On day 3, all mice were weighed and terminated.
The femurs were excised from the terminated mice, the bone marrow was extracted, and duplicate smear preparations were performed for each mouse. The bone marrow slides for each animal were read at 40× magnification. The ratio of polychromatic erythrocytes (PCE) to normochromatic erythrocytes (NCE), an index of bone marrow toxicity, was determined for each mouse by counting a total of at least 200 erythrocytes. Then a minimum of 2000 scoreable PCE per mouse were evaluated for the incidence of micronucleated polychromatic erythrocytes. Statistical analysis of the data were done using the Mann and Whitney test (at 5% risk threshold) from a statistical software package (Statview 5.0, SAS Institute Inc., USA).

CC[C@H](C)[C@H](N)C1=N[C@H](C(=O)N[C@@H](CC(C)C)C(=O)N[C@H](CCC(=O)O)C(=O)N[C@H](C(=O)N[C@H]2CCCCNC(=O)[C@H](CC(N)=O)NC(=O)[C@@H](CC(=O)O)NC(=O)[C@H](Cc3cnc[nH]3)NC(=O)[C@@H](Cc3ccccc3)NC(=O)[C@H]([C@@H](C)CC)NC(=O)[C@@H](CCCN)NC2=O)[C@@H](C)CC)CS1 [Bacitracin] ({Ileψ(thiazoline)Cys}-L[dE]IK[dOrn]I[dF]H[dD]N; lactam 4-C)
lowering of bacterial or spore populations [1]: no evidence of lowering the bacterial or spore populations

OO [HP, hydrogen peroxide]
Cells with SA-β-Gal expression (primary HDF cultures): 86%
Apoptosis, cells exposing Annexin-V ([2]; 5 min): 15%
Apoptosis, cells exposing Annexin-V ([2]; 30 min): 20%

O=P1(N(CCCl)CCCl)NCCCO1 (centres unmarked) [cyclophosphamide]
number of polychromatic erythrocytes bearing micronuclei ([3]; females, negative control 1.0): 12.6
PCE/NCE ratio ([3]; females, negative control 1.02): 0.73
number of polychromatic erythrocytes bearing micronuclei ([3]; males, negative control 0.6): 11.0
PCE/NCE ratio ([3]; males, negative control 0.90): 0.77

Reference: US8147444B2, “Methods of treating or preventing peritonitis with oxidative reductive potential water solution” (Oculus Innovative Sciences, Inc., priority 2006, dated 2012)
